What was measured:
[1] = test system: second-stage juveniles (J2) of M. incognita; assay: Bioassay against second-stage juveniles (J2) of M. incognita, 48 hours' exposure (paralysis); format: in vivo; details: for nematotoxic effect on J2 / J2 paralyzed / % paralyzed nematodes / % of paralyzed nematodes: 48 hours' exposure; for % of paralyzed nematodes: 0.25 g/L (of each compound)
Experimental: (§1) FIG. 9—(A) Bioassay showing the effect of the commercial compounds on second-stage juveniles of M. incognita after 48 hours' exposure. 1—Control dH20, 2—DECE, 3—Glycose 10%, 4—Glycose 20%, 5—D-Pinitol (80 ug), 6—D-Pinitol (150 ug), 7—L-canavanina (80 ug), 8—L-canavanina (150 ug), 9—palmitic acid (80 ug), 10—palmitic acid (150 ug), 11—citric acid (80 ug), 12—citric acid (150 ug), 13—malic acid (80 ug), 14—malic acid (150 ug), 15—cis-aconitic acid (80 ug), 16—cis-anonitic acid (150 ug), 17—trans-anonitic acid (80 ug), 18—trans-aconitic acid (150 ug), 19—50 mM Tris/HCl pH 8, 20—50 mM acetic acid pH 5, 21—L-phenylamine (80 ug), 22—L-phenylamine (150 ug), 23—L-methionine (80 ug), 24—L-methionine (150 ug), 25—L-tryptophan (80 ug), 26—L-tryptophan (150 ug), 27—S-carboxymethylcistein (80 ug), 28—S-carboxymethylcisteine (150 ug), 29—Zantotoxine (80 ug), 30—Zantotoxine (150 ug), and 31—Glucose 20%+L-canavanine (15) ug). B—Evaluation of the effect of the different commercial compounds after the recovery assay using distilled water.
(§2) FIG. 10—(A) Bioassay showing the effect of the commercial compounds and their compositions on second-stage juveniles of M. incognita (J1) after 48 hours' exposure. C+ positive control (extract); C−: negative control (water); 2: palmitic acid; 3: S-carboxymethylcisteine; 4: trans-aconitic acid; 5: glucose. […] (B)—Evaluation of the effect of the different commercial compounds and their compositions after the recovery assay using distilled water. C+ positive control (extract); 2: palmitic acid; 3: S-carboxymethylcisteine; 4: trans-aconitic acid; 5: glucose.
(§3) In this context, compounds produced commercially with biological functions identified after research in the literature and present in the nematotoxic fractions of C. ensiformis were tested in bioassay against M. incognita juveniles (FIG. 9A).

J2 of M. incognita = assay: Recovery assay using distilled water (nematicidal vs nematostatic effect); format: in vivo
Experimental: as §1, §2, §3

Compound: CO[C@H]1[C@H](O)[C@@H](O)[C@@H](O)[C@H](O)[C@@H]1O [D-pinitol]
- nematotoxic effect on J2 ([1]; 80 μg/300 μL): did not exhibit any toxic effect
- nematotoxic effect on J2 ([1]; 150 μg/300 μL): did not exhibit any toxic effect

Compound: N=C(N)NOCC[C@H](N)C(=O)O [L-canavanine]
- juveniles remained paralyzed after the recovery assay (J2 of M. incognita; 105 μg/300 μL): 25%
- nematotoxic effect on J2 ([1]; 80 μg/300 μL): did not exhibit any nematotoxic activity

Compound: N[C@@H](Cc1ccccc1)C(=O)O [L-phenylamnine]
- nematotoxic effect on J2 ([1]; 80 μg/300 μL): not capable of affecting the J2
- nematotoxic effect on J2 ([1]; 150 μg/300 μL): not capable of affecting the J2

Compound: N[C@@H](Cc1c[nH]c2ccccc12)C(=O)O [L-triptofane]
- nematotoxic effect on J2 ([1]; 80 μg/300 μL): not capable of affecting the J2
- nematotoxic effect on J2 ([1]; 150 μg/300 μL): not capable of affecting the J2

Compound: COc1c2occc2cc2ccc(=O)oc12 [Xantotoxin]
- kind of effect confirmed by recovery assay (J2 of M. incognita; 80 μg/300 μL): nematicidal effect
- kind of effect confirmed by recovery assay (J2 of M. incognita; 150 μg/300 μL): nematicidal effect
- J2 paralyzed ([1]; 80 μg/300 μL): 87%
- J2 paralyzed ([1]; 150 μg/300 μL): 87%

Compound: O=C(O)/C=C(/CC(=O)O)C(=O)O [cis-aconitic, cis-aconitic acid]
- nematicidal activity after the recovery assay (J2 of M. incognita; 150 μg/300 μL): 40%

Compound: O=C[C@H](O)[C@@H](O)[C@H](O)[C@H](O)CO [glucose]
- kind of activity confirmed by recovery assay (J2 of M. incognita; solution 10% (W/V)): nematostatic activity
- % paralyzed nematodes ([1]; 0.125 g/L (of each compound)): 0%
- paralyzing of nematodes ([1]; solution 10% (W/V), 48 hours): paralyzing most of the nematodes

Compound: CCCCCCCCCCCCCCCC(=O)O [palmitic acid]
- kind of effect confirmed by recovery assay (J2 of M. incognita; 80 μg/300 μL): nematostatic effect
- kind of effect confirmed by recovery assay (J2 of M. incognita; 150 μg/300 μL): nematostatic effect
- % paralyzed nematodes ([1]; 0.125 g/L (of each compound)): <7.66%
- % paralyzed nematodes ([1]; 0.17 g/L (of each compound)): 7.66%
- % of paralyzed nematodes [1]: 33.86%

Compound: O=C(O)/C=C(\CC(=O)O)C(=O)O [trans-aconitic acid]
- nematicidal activity after the recovery assay (J2 of M. incognita; 150 μg/300 μL): 98%
- J2 paralyzed ([1]; 80 μg/300 μL): 90%
- % paralyzed nematodes ([1]; 0.125 g/L (of each compound)): <11.12%
- % paralyzed nematodes ([1]; 0.17 g/L (of each compound)): 11.12%
- % of paralyzed nematodes [1]: 27.08%

Compound: S-carboxymethylcisteine
- kind of effect confirmed by recovery assay (J2 of M. incognita; 80 μg/300 μL): nematostatic effect
- kind of effect confirmed by recovery assay (J2 of M. incognita; 150 μg/300 μL): nematostatic effect
- J2 paralyzed ([1]; 80 μg/300 μL): about 90%
- J2 paralyzed ([1]; 150 μg/300 μL): about 90%
- % paralyzed nematodes ([1]; 0.125 g/L (of each compound)): <43.03%
- % paralyzed nematodes ([1]; 0.17 g/L (of each compound)): 43.03%

— US9750247B2, “Nematotoxic composition of synergistic effect, use of a nematotoxic composition of synergistic effect” (EMPRESA BRASILEIRA DE PESQUISA AGROPECUARIA—EMBRAPA, priority 2012, dated 2017)
